We go through 1 compound from patent publication US6423518B1, “Design and production of mutant 2,5-diketo-D-gluconic acid reductase enzymes with altered cofactor dependency” (Rutgers, the State University, priority 2000, dated 2002).

Broadly, the Km is the substrate concentration at which the rate is half of its maximum. Broadly, the Kd is the constant that tells how readily two partners part at equilibrium. Read a low Kd as tighter binding.

Experiment [1] concerns hemolymph 3-dehydroecdysone 3β-reductase from Spodoptera littoralis. The settings on record: read-out: KM for NADH; Chen et al. Eur. J. Biochem. 1996; cited from earlier work.
Experiment [2] addresses T1, 2,5-diketo-D-gluconic acid reductase A (Corynebacterium sp., wild type SEQ ID NO:1) variant K232Q (Corynebacterium sp., UniProt P06632, K232Q).
T1 construct: GroES fragment (N); made in house; host or cells: E. coli JM109
The experiment in a line: Kinetic determination with purified enzyme, NADH cofactor, initial rates (microtiter plate). The format is biochemical. The protocol:
(§1) The activities of the purified enzymes were assayed in 96-well microtiter plates on a plate reader.
(§2) Equation (1) is: [formula]
(§3) B=2,5-diketo-D-gluconic acid concentration;
(§4) Kb=Michaelis Constant for 2,5-diketo-D-gluconic acid;
(§5) Et=Total enzyme concentration.
(§6) This equation is only valid when B<<Kb.
(§7) Cells containing plasmids for some of the mutant reductases were grown up on a 1 liter scale using a 10 ml inoculum from a saturated overnight culture. The cells were grown until absorbance of the culture at 600 nm was approximately 1.0. The cells were then induced by adding IPTG to a final concentration of 1 mM. The cells were harvested after growth at 37° C. for 4 hours. The cells were then pelleted by centrifugation and frozen for later use. At a later date, cells were thawed and lysed with the Bug Buster detergent (Novagen) containing Complete Protease Inhibitor Cocktail Tablets (Roche). The pH was lowered to 5.5 with 20 mM sodium acetate (NaOAc) and NaCl was added to a final concentration of 0.15 M. After 10 minutes with the detergent, the cell debris was removed by centrifugation, and the supernatant was loaded onto disposable chromatography columns containing a 10 ml bed volume of DEAE Cellulose (Sigma) for a batch weak ion exchange step. The resin was washed with 0.15 M NaCl, still in the presence of NaOAc, pH 5.5. The bound proteins were then eluted by two washes with 0.5 M NaCl.

Experiment [3] has as its target T2, 2,5-diketo-D-gluconic acid reductase A (Corynebacterium sp., wild type SEQ ID NO:1) variant K232M (Corynebacterium sp., UniProt P06632, K232M).
T2 construct: GroES fragment (N); made in house; host or cells: E. coli JM109
Described as above. The experiment is classed as biochemical. The protocol: as §1, §2, §3, §4, §5, §6, §7

In experiment [4] the target is T3, 2,5-diketo-D-gluconic acid reductase A (Corynebacterium sp., wild type SEQ ID NO:1) variant K232G (Corynebacterium sp., UniProt P06632, K232G).
T3 construct: GroES fragment (N); made in house; host or cells: E. coli JM109
The experiment is described as above. The experiment is classed as biochemical. The protocol: as §1, §2, §3, §4
(§8) Kia=Dissociation Constant for NADH;
as §5
(§9) However, the parameters could not be fit in this model with any accuracy, due to the large apparent value of KM for 2,5-diketo-D-gluconic acid, and the low concentration of 2,5-diketo-D-gluconic acid that was used. The 2,5-diketo-D-gluconic acid concentrations were not large enough to saturate the enzyme, so a further mathematical simplification was required. Preliminary fitting of the model indicated both kcat and Kb to be very large in comparison to Ka and Kia Therefore, the rate equation was simplified to the following equation (2): [formula]
as §6
(§10) This equation was then used to fit the kinetic data, with much better results.
(§11) Other comparisons can also be made between the different mutants using these parameters. […]
as §7, with “NaCl. The eluted material was then diluted back to 0.15 M NaCl by the addition of more 20 mM NaOAc buffer. This was then loaded onto a 4.6 mmD/100mml PEEK column (PerSeptive Biosystems) containing 50 μm DEAE Ceramic HyperD F resin (BioSepra) using an FPLC system. The high performance resin was washed with 0.1 M NaCl and the bound proteins were eluted using a linear salt gradient up to 0.4 M NaCl. Active fractions were pooled and the pH was raised to 7.0 using 50 mM bis-Tris. The pooled fractions were then concentrated by ultrafiltration in a stirred cell unit using a polyethersulfone membrane with a 10,000 MW cut-off (Millipore). The concentrate was loaded onto a Superdex-75 gel filtration column (Pharmacia) using 50 mM bis-Tris pH 7.0 with an FPLC system. The active fractions were again pooled. A small sample from the pooled fractions was electrophoresed on a polyacrylamide gel in the presence of SDS in order to insure homogeneity of the final product.” for “NaCl.”
(§12) NADPH and NADH were prepared fresh for each use in kinetic measurements. These reactions were performed in 96-well microtiter plates using a SpectraMax 190 plate reader (Molecular Devices). Varying amounts of cofactor and substrate were added to the wells and reaction was initiated by the addition of the mutant enzyme. The final volume of each reaction was 200 μl, the reactions were buffered with 50 mM bis-Tris pH 7.0, and the temperature was held at 25° C. […] Initial rate data was collected in each well, and a standard curve was generated each day in order to correlate the change in absorbance of the reaction to a change in concentration of cofactors. All measurements were performed in triplicate (at least) and the runs were averaged for use in kinetic modeling.

Experiment [5] deals with T4, 2,5-diketo-D-gluconic acid reductase A (Corynebacterium sp., wild type SEQ ID NO:1) variant R235G (Corynebacterium sp., UniProt P06632, R235G).
T4 construct: GroES fragment (N); made in house; host or cells: E. coli JM109
The experiment is described as above. The experiment is classed as biochemical. As for the experimental part: as §1, §2, §3, §4, §8, §5, §9, §6, §10, §11
as §7, with “NaCl. The eluted material was then diluted back to 0.15 M NaCl by the addition of more 20 mM NaOAc buffer. This was then loaded onto a 4.6 mmD/100mml PEEK column (PerSeptive Biosystems) containing 50 μm DEAE Ceramic HyperD F resin (BioSepra) using an FPLC system. The high performance resin was washed with 0.1 M NaCl and the bound proteins were eluted using a linear salt gradient up to 0.4 M NaCl. Active fractions were pooled and the pH was raised to 7.0 using 50 mM bis-Tris. The pooled fractions were then concentrated by ultrafiltration in a stirred cell unit using a polyethersulfone membrane with a 10,000 MW cut-off (Millipore). The concentrate was loaded onto a Superdex-75 gel filtration column (Pharmacia) using 50 mM bis-Tris pH 7.0 with an FPLC system. The active fractions were again pooled. A small sample from the pooled fractions was electrophoresed on a polyacrylamide gel in the presence of SDS in order to insure homogeneity of the final product.” for “NaCl.”
as §12

Experiment [6] addresses T5, 2,5-diketo-D-gluconic acid reductase A (Corynebacterium sp., wild type SEQ ID NO:1) variant K232S (Corynebacterium sp., UniProt P06632, K232S).
T5 construct: GroES fragment (N); made in house; host or cells: E. coli JM109
Described as above. The experiment is classed as biochemical. The protocol:
as §1, §2, §3, §4, §8, §5, §9, §6, §10, §11
as §7, with “NaCl. The eluted material was then diluted back to 0.15 M NaCl by the addition of more 20 mM NaOAc buffer. This was then loaded onto a 4.6 mmD/100mml PEEK column (PerSeptive Biosystems) containing 50 μm DEAE Ceramic HyperD F resin (BioSepra) using an FPLC system. The high performance resin was washed with 0.1 M NaCl and the bound proteins were eluted using a linear salt gradient up to 0.4 M NaCl. Active fractions were pooled and the pH was raised to 7.0 using 50 mM bis-Tris. The pooled fractions were then concentrated by ultrafiltration in a stirred cell unit using a polyethersulfone membrane with a 10,000 MW cut-off (Millipore). The concentrate was loaded onto a Superdex-75 gel filtration column (Pharmacia) using 50 mM bis-Tris pH 7.0 with an FPLC system. The active fractions were again pooled. A small sample from the pooled fractions was electrophoresed on a polyacrylamide gel in the presence of SDS in order to insure homogeneity of the final product.” for “NaCl.”
as §12

Where [7] appears, read: kcat/Ka apparent with NADH, relative to wild type.
Setting [8] is: versus wild type, NADH as varied substrate.

T5 sequence (P06632 whole entry K232S, the tested form may be a part): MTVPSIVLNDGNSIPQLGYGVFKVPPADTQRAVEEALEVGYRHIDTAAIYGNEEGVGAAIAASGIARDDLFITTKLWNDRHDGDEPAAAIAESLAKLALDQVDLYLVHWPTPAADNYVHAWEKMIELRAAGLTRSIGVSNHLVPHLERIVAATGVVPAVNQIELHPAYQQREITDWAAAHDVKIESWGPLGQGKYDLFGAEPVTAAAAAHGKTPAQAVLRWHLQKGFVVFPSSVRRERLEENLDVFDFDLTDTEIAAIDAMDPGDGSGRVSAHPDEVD
T4 sequence (P06632 whole entry R235G, the tested form may be a part): as the sequence (P06632 whole entry K232S, the tested form may be a part) above, with S232K, R235G counted along it
T3 sequence (P06632 whole entry K232G, the tested form may be a part): as the sequence (P06632 whole entry K232S, the tested form may be a part) above, with S232G counted along it
T1 sequence (P06632 whole entry K232Q, the tested form may be a part): as the sequence (P06632 whole entry K232S, the tested form may be a part) above, with S232Q counted along it
T2 sequence (P06632 whole entry K232M, the tested form may be a part): as the sequence (P06632 whole entry K232S, the tested form may be a part) above, with S232M counted along it

As to `NC(=O)C1=CN([C@@H]2O[C@H](COP(=O)(O)OP(=O)(O)OC[C@H]3O[C@@H](n4cnc5c(N)ncnc54)[C@H](O)[C@@H]3O)[C@@H](O)[C@H]2O)C=CC1` [NADH], the Km in experiment [1] was 22.8 µM. In addition, the Kd amounted to 3.87 ± 0.34 mM in experiment [2]; 3.89 ± 0.23 mM in experiment [3]; 2.02 ± 0.12 mM in experiment [4]; 8.42 ± 0.69 mM in experiment [5]; 2.82 ± 0.27 mM in experiment [6]. Besides, the “(kcat/KbKia)/(kcat/KbKia)wt” value in experiment [2] (setting [7]) came out at 0.59; in experiment [3] (setting [7]) it was 0.55; in experiment [4] (setting [7]), 1.55; in experiment [5] (setting [7]) it was 1.53; in experiment [6] (setting [7]), 0.40. In addition, the “Kia/(Kia)wt” value in experiment [4] (relative to wild type, NADH) is reported as 0.78; in experiment [5] (relative to wild type, NADH) it was 3.24; in experiment [6] (relative to wild type, NADH), 1.08. Moreover, the “increase of apparent Ka” value in experiment [5] (setting [8]) is on record as “more than 3 fold”. Also, the “increase of apparent kcat” value in experiment [5] (setting [8]) is on record as 5 fold.
